The values that follow come from US4230711A (priority 1979, dated 1980).

Experiment [1] concerns Septoria apii. Type of experiment: in vivo. The conditions noted are these: @ 250 ppm; celery (Utah) plants; approximately 14 days; relative to untreated check plants.
Experiment [2] deals with Phytophthora infestans conidia. It is filed as in vivo. The conditions noted are these: @ 250 ppm; tomato (Bonny Best) seedlings sprayed, inoculated one day later; approximately 7 days; relative to untreated check plants.
Experiment [3] deals with Erysiphe polygoni. The note with it: in vivo.
Experiment [4] concerns Alternaria solani conidia. The conditions noted are these: in vivo.
In experiment [5] the test system is fungi. The note with it: cited from earlier work.

As to `CC1(C)C(=O)NC(=O)c2ccccc21` [Compound 3, 4,4-dimethyl homophthalimide], the “% Control, Celery Late Blight” value in experiment [1] is 0%. Further, the “% Control, Tomato Late Blight” value in experiment [2] was 0%. Further, the “% Control, Bean Powdery Mildew” value in experiment [3] is recorded as 0%. For the same molecule, in experiment [4], the “% Control, Tomato Early Blight” value turned out to be 0%.

In the case of `O=C1c2ccccc2C(=O)N1SC(Cl)(Cl)Cl` [N-(trichloromethylthio)phthalimide], the fungicidal activity result in experiment [5] is listed as “having fungicidal activity”.

As for `CC1(C)C(=O)N(SC(Cl)(Cl)Cl)C(=O)c2ccccc21` [Compound 1, N-(trichloromethylthio)-4,4-dimethyl homophthalimide], in experiment [1], the “% Control, Celery Late Blight” value amounted to 50%. In addition, the “% Control, Tomato Late Blight” value in experiment [2] was found to be 95%. Besides, the “% Control, Bean Powdery Mildew” value in experiment [3] is on record as 96%. Moreover, in experiment [4], the “% Control, Tomato Early Blight” value stood at 33%.
